Several values for one entry are separate records, joined by “and”; a condition that tells them apart may be missing. Identical values can stand only once.
Tested on: 439559-082-T-J2-PDC complex spheroid growth
Assay: Anticancer human tumor 439559-082-T-J2-PDC patient-derived colon adenocarcinoma cell line growth inhibition [Asc]
Conditions: for viability, T/C: stronger effect = lower value; active = viability on the fitted dose curve at most 10% of control; inactive = the rest
Summary of the method: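 Stromal components (HUVEC and hMSC) are co-assembled with the cancer cells into multicellular spheroids. Drugs are then added singly or paired, at concentrations falling by half-log increments from a clinically achievable maximum, capped at 10 microM without known Cmax.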

[1] = curve of first compound, second compound 0.1 µM
[2] = curve of first compound, second compound 0.316 µM
[3] = curve of first compound, second compound 1 µM
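Also: spheroids exposed to agents for 7 days starting day 3 after seeding.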
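For viability, T/C in this document: percent of DMSO vehicle control viability with 100% = vehicle.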

Cc1nc(N2CCC3(CC2)COC(C)C3N)c(CO)nc1Sc1ccnc(N)c1Cl (centres undefined)
> 3000 nM: IC50 (curve of compound)
inactive: viability, T/C (compound 0.00949 µM) 89.8% and 104% and 107% | viability, T/C (compound 0.03 µM) 93.7% and 111% and 108% | viability, T/C (compound 0.0949 µM) 102% and 99.4% and 101% | viability, T/C (compound 0.3 µM) 110% and 91.8% and 99.9% | viability, T/C (compound 0.949 µM) 99.8% and 94.1% and 92% | viability, T/C (compound 3 µM) 72.1% and 79.7% and 81.7%

NC(=O)C(=Cn1cnc(-c2cc(C(F)(F)F)cc(C(F)(F)F)c2)n1)c1cncnc1 + CNC(C)C(=O)NC1CN(S(=O)(=O)c2cccc(S(=O)(=O)N3CCC4CCC(C(=O)NC(c5ccccc5)c5ccccc5)N4C(=O)C(NC(=O)C(C)NC)C3)c2)CCC2CCC(C(=O)NC(c3ccccc3)c3ccccc3)N2C1=O
inactive: viability, T/C (second compound 0.00316 µM, first compound 0.000949 µM) 105% | viability, T/C (second compound 0.00316 µM, first compound 0.003 µM) 101% | viability, T/C (second compound 0.00316 µM, first compound 0.00949 µM) 102% | viability, T/C (second compound 0.00316 µM, first compound 0.03 µM) 97% | viability, T/C (second compound 0.00316 µM, first compound 0.0949 µM) 98.2% | viability, T/C (second compound 0.00316 µM, first compound 0.3 µM) 79.4% | viability, T/C (second compound 0.01 µM, first compound 0.000949 µM) 101% | viability, T/C (second compound 0.01 µM, first compound 0.003 µM) 92.3% | viability, T/C (second compound 0.01 µM, first compound 0.00949 µM) 94.1% | viability, T/C (second compound 0.01 µM, first compound 0.03 µM) 98.7% | viability, T/C (second compound 0.01 µM, first compound 0.0949 µM) 102% | viability, T/C (second compound 0.01 µM, first compound 0.3 µM) 92.4% | viability, T/C (second compound 0.0316 µM, first compound 0.000949 µM) 94.1% | viability, T/C (second compound 0.0316 µM, first compound 0.003 µM) 87.3% | viability, T/C (second compound 0.0316 µM, first compound 0.00949 µM) 100% | viability, T/C (second compound 0.0316 µM, first compound 0.03 µM) 99.7% | viability, T/C (second compound 0.0316 µM, first compound 0.0949 µM) 108% | viability, T/C (second compound 0.0316 µM, first compound 0.3 µM) 84.8% | viability, T/C (second compound 0.1 µM, first compound 0.000949 µM) 96.3% | viability, T/C (second compound 0.1 µM, first compound 0.003 µM) 103% | viability, T/C (second compound 0.1 µM, first compound 0.00949 µM) 94.9% | viability, T/C (second compound 0.1 µM, first compound 0.03 µM) 99.3% | viability, T/C (second compound 0.1 µM, first compound 0.0949 µM) 101% | viability, T/C (second compound 0.1 µM, first compound 0.3 µM) 87.2% | viability, T/C (second compound 0.316 µM, first compound 0.000949 µM) 100% | viability, T/C (second compound 0.316 µM, first compound 0.003 µM) 99.2% | viability, T/C (second compound 0.316 µM, first compound 0.00949 µM) 87.2% | viability, T/C (second compound 0.316 µM, first compound 0.03 µM) 86.2% | viability, T/C (second compound 0.316 µM, first compound 0.0949 µM) 97% | viability, T/C (second compound 0.316 µM, first compound 0.3 µM) 82.8% | viability, T/C (second compound 1 µM, first compound 0.000949 µM) 79.1% | viability, T/C (second compound 1 µM, first compound 0.003 µM) 80% | viability, T/C (second compound 1 µM, first compound 0.00949 µM) 86.8% | viability, T/C (second compound 1 µM, first compound 0.03 µM) 71.4% | viability, T/C (second compound 1 µM, first compound 0.0949 µM) 88.7% | viability, T/C (second compound 1 µM, first compound 0.3 µM) 74.2%
> 300 nM: IC50 (curve of first compound, second compound 0.00316 µM) | IC50 (curve of first compound, second compound 0.01 µM) | IC50 (curve of first compound, second compound 0.0316 µM) | IC50 [1] | IC50 [2] | IC50 [3]

Cc1nc(N2CCC3(CC2)COC(C)C3N)c(CO)nc1Sc1ccnc(N)c1Cl (centres undefined) + CCN1C(C(=O)NC23CCC(C(=O)O)(CC2)CC3)C(c2cccc(Cl)c2F)C2(C(=O)Nc3cc(Cl)ccc32)C12CCCCC2
inactive: viability, T/C (second compound 0.03 µM, first compound 0.00949 µM) 109% | viability, T/C (second compound 0.03 µM, first compound 0.03 µM) 110% | viability, T/C (second compound 0.03 µM, first compound 0.0949 µM) 106% | viability, T/C (second compound 0.03 µM, first compound 0.3 µM) 91.6% | viability, T/C (second compound 0.03 µM, first compound 0.949 µM) 91.7% | viability, T/C (second compound 0.03 µM, first compound 3 µM) 80.3% | viability, T/C (second compound 0.0949 µM, first compound 0.00949 µM) 107% | viability, T/C (second compound 0.0949 µM, first compound 0.03 µM) 109% | viability, T/C (second compound 0.0949 µM, first compound 0.0949 µM) 114% | viability, T/C (second compound 0.0949 µM, first compound 0.3 µM) 93.7% | viability, T/C (second compound 0.0949 µM, first compound 0.949 µM) 86.9% | viability, T/C (second compound 0.0949 µM, first compound 3 µM) 86.1% | viability, T/C (second compound 0.3 µM, first compound 0.00949 µM) 106% | viability, T/C (second compound 0.3 µM, first compound 0.03 µM) 111% | viability, T/C (second compound 0.3 µM, first compound 0.0949 µM) 105% | viability, T/C (second compound 0.3 µM, first compound 0.3 µM) 87.8% | viability, T/C (second compound 0.3 µM, first compound 0.949 µM) 91.2% | viability, T/C (second compound 0.3 µM, first compound 3 µM) 81.2% | viability, T/C (second compound 0.949 µM, first compound 0.00949 µM) 103% | viability, T/C (second compound 0.949 µM, first compound 0.03 µM) 113% | viability, T/C (second compound 0.949 µM, first compound 0.0949 µM) 115% | viability, T/C (second compound 0.949 µM, first compound 0.3 µM) 93.5% | viability, T/C (second compound 0.949 µM, first compound 0.949 µM) 93.2% | viability, T/C (second compound 0.949 µM, first compound 3 µM) 82.2% | viability, T/C (second compound 3 µM, first compound 0.00949 µM) 89.5% | viability, T/C (second compound 3 µM, first compound 0.03 µM) 96% | viability, T/C (second compound 3 µM, first compound 0.0949 µM) 97.4% | viability, T/C (second compound 3 µM, first compound 0.3 µM) 87.8% | viability, T/C (second compound 3 µM, first compound 0.949 µM) 77.9% | viability, T/C (second compound 3 µM, first compound 3 µM) 82.7%
> 3000 nM: IC50 (curve of first compound, second compound 0.03 µM) | IC50 (curve of first compound, second compound 0.0949 µM) | IC50 (curve of first compound, second compound 0.3 µM) | IC50 (curve of first compound, second compound 0.949 µM) | IC50 (curve of first compound, second compound 3 µM)

O=C(c1ccc(F)c(F)c1Nc1ccc(I)cc1F)N1CC(O)([C@@H]2CCCCN2)C1 + Cc1c(S(C)(=O)=O)c(-c2cc(F)cc(N3CCN(c4ccc(NS(=O)(=O)c5ccc(NC(CCN6CCC(C(=O)OCCCP(=O)(O)O)CC6)CSc6ccccc6)c(S(=O)(=O)C(F)(F)F)c5)cc4)CC3)c2)c(-c2ccc(Cl)cc2)n1C(C)C
141 nM: IC50 [3]
inactive: viability, T/C (second compound 0.1 µM, first compound 0.00316 µM) 96.7% | viability, T/C (second compound 0.1 µM, first compound 0.01 µM) 105% | viability, T/C (second compound 0.1 µM, first compound 0.0316 µM) 76% | viability, T/C (second compound 0.1 µM, first compound 0.1 µM) 57.5% | viability, T/C (second compound 0.1 µM, first compound 0.316 µM) 47.7% | viability, T/C (second compound 0.1 µM, first compound 1 µM) 16.9% | viability, T/C (second compound 0.316 µM, first compound 0.00316 µM) 96% | viability, T/C (second compound 0.316 µM, first compound 0.01 µM) 103% | viability, T/C (second compound 0.316 µM, first compound 0.0316 µM) 79.8% | viability, T/C (second compound 0.316 µM, first compound 0.1 µM) 59.5% | viability, T/C (second compound 0.316 µM, first compound 0.316 µM) 42.6% | viability, T/C (second compound 0.316 µM, first compound 1 µM) 11.5% | viability, T/C (second compound 1 µM, first compound 0.00316 µM) 88.8% | viability, T/C (second compound 1 µM, first compound 0.01 µM) 96.1% | viability, T/C (second compound 1 µM, first compound 0.0316 µM) 84.6% | viability, T/C (second compound 1 µM, first compound 0.1 µM) 48.5% | viability, T/C (second compound 1 µM, first compound 0.316 µM) 38.2% | viability, T/C (second compound 1 µM, first compound 1 µM) 7.87% | viability, T/C (second compound 3.16 µM, first compound 0.00316 µM) 91.6% | viability, T/C (second compound 3.16 µM, first compound 0.01 µM) 90.9% | viability, T/C (second compound 3.16 µM, first compound 0.0316 µM) 76.3% | viability, T/C (second compound 3.16 µM, first compound 0.1 µM) 45.4% | viability, T/C (second compound 3.16 µM, first compound 0.316 µM) 29.9% | viability, T/C (second compound 10 µM, first compound 0.00316 µM) 76.5% | viability, T/C (second compound 10 µM, first compound 0.01 µM) 68.7% | viability, T/C (second compound 10 µM, first compound 0.0316 µM) 68.3% | viability, T/C (second compound 10 µM, first compound 0.1 µM) 32.6% | viability, T/C (second compound 10 µM, first compound 0.316 µM) 19.1%
active: viability, T/C (second compound 3.16 µM, first compound 1 µM) 4.98% | viability, T/C (second compound 10 µM, first compound 1 µM) 2.9%
188 nM: IC50 [2]
201 nM: IC50 [1]
104 nM: IC50 (curve of first compound, second compound 3.16 µM)
56.6 nM: IC50 (curve of first compound, second compound 10 µM)

Reference: PubChem BioAssay AID1963423 (Molecular Pharmacology Branch, DTP, NCI, 2024)
